# How the values were obtained:
# [1] = system: primary mouse hepatocytes; test: Gene expression in primary mouse hepatocytes, GTX vs non-GTX (four-gene classifier, 24 h)
# [2] = system: primary mouse hepatocytes
# [3] = system: primary mouse hepatocytes; test: Gene expression (Affymetrix Mouse Genome 430 2.0) in primary mouse hepatocytes, true vs false GTX, 24 h and 48 h
substance,measurement,setting,value
Mitomycin C [MitC],score 1700007K13RIK,[1],1
same,score DDIT4L,[1],1
same,score GAS2L3,[1],1
same,score SPC25,[1],1
same,Gene expression data AF204959 (Cyp3a25 /// LOC622249),[2],0.8169
same,Gene expression AA561726 average,[3],−4.372
same,Gene expression AF000969 average,[3],−3.3606
same,Gene expression AF022072 average,[3],−3.37
same,Gene expression AF033112 average,[3],2.219
same,Gene expression AF055573 average,[3],−2.916
same,Gene expression AF069954 average,[3],2.26
same,Gene expression AF297615 average,[3],1.841
same,Gene expression AF335325 average,[3],1.755
same,Gene expression AI594683 average,[3],4.611
same,Gene expression AI747296 average,[3],−2.056
same,Gene expression AK005731 average,[3],6.089
same,Gene expression AK007854 average,[3],1.5
same,Gene expression AK010447 average,[3],−1.6388
same,Gene expression AK010738 average,[3],1.98
same,Gene expression AK014608 average,[3],2.8746
same,Gene expression AK017734 average,[3],1.835
same,Gene expression AK018383 average,[3],0.994
same,Gene expression AK019979 average,[3],−3.757
same,Gene expression AV095209 average,[3],−2.78
same,Gene expression AV141095 average,[3],−2.411
same,Gene expression AV173869 average,[3],−2.2889
same,Gene expression AV216768 average,[3],−4.149
same,Gene expression AV219418 average,[3],4.168
same,Gene expression AV221299 average,[3],−3.71
same,Gene expression AV246296 average,[3],1.4788
same,Gene expression AV251625 average,[3],2.477
same,Gene expression AV254764 average,[3],1.411
same,Gene expression AV327248 average,[3],4.918
same,Gene expression BB009155 average,[3],2.9201
same,Gene expression BB027848 average,[3],1.879
same,Gene expression BB043558 average,[3],2.332
same,Gene expression BB046347 average,[3],1.35
same,Gene expression BB140436 average,[3],−1.601
same,Gene expression BB204486 average,[3],−4.144
same,Gene expression BB223872 average,[3],2.201
same,Gene expression BB246912 average,[3],−1.866
same,Gene expression BB275142 average,[3],2.282
same,Gene expression BB458460 average,[3],−2.7207
same,Gene expression BB463610 average,[3],2.728
same,Gene expression BB730977 average,[3],−2.36
same,Gene expression BB743970 average,[3],3.5588
same,Gene expression BB770528 average,[3],2.0332
same,Gene expression BB781615 average,[3],0.8952
same,Gene expression BC003284 average,[3],2.093
same,Gene expression BC004827 average,[3],−3.639
same,Gene expression BC005552 average,[3],−1.342
same,Gene expression BC006713 average,[3],1.2958
same,Gene expression BC010318 average,[3],−1.729
same,Gene expression BC012247 average,[3],2.2674
same,Gene expression BC012955 average,[3],−2.241
same,Gene expression BC013893 average,[3],1.864
same,Gene expression BC017615 average,[3],−3.947
same,Gene expression BC019379 average,[3],−2.7493
same,Gene expression BC019882 average,[3],2.442
same,Gene expression BC021352 average,[3],3.121
same,Gene expression BC022148 average,[3],2.668
same,Gene expression BC025169 average,[3],−3.296
same,Gene expression BC026131 average,[3],−0.9986
same,Gene expression BC027026 average,[3],2.873
same,Gene expression BC027121 average,[3],2.742
same,Gene expression BC027185 average,[3],2.115
same,Gene expression BE956581 average,[3],3.68
same,Gene expression BF719766 average,[3],2.112
same,Gene expression BG065754 average,[3],1.3079
same,Gene expression BG066491 average,[3],−1.929
same,Gene expression BG076151 average,[3],2.5119
same,Gene expression BG076333 average,[3],−1.87
same,Gene expression BG797099 average,[3],2.6244
same,Gene expression BG967046 average,[3],1.305
same,Gene expression BI651416 average,[3],2.2069
same,Gene expression BI966443 average,[3],4.094
same,Gene expression BM198879 average,[3],1.928
same,Gene expression BM200015 average,[3],1.702
same,Gene expression BM230508 average,[3],2.571
same,Gene expression BM936480 average,[3],2.006
same,Gene expression BQ174991 average,[3],−2.777
same,Gene expression L21027 average,[3],−4.612
same,Gene expression NM_007556 average,[3],−4.012
same,Gene expression NM_007980 average,[3],2.9391
same,Gene expression NM_007987 average,[3],2.2406
same,Gene expression NM_008522 average,[3],5.9249
same,Gene expression NM_008935 average,[3],−3.601
same,Gene expression NM_009897 average,[3],4.658
same,Gene expression NM_011075 average,[3],3.096
same,Gene expression NM_011176 average,[3],1.856
same,Gene expression NM_011316 average,[3],2.256
same,Gene expression NM_012006 average,[3],3.166
same,Gene expression NM_013642 average,[3],−0.7845
same,Gene expression NM_013738 average,[3],2.749
same,Gene expression NM_013929 average,[3],2.481
same,Gene expression NM_018881 average,[3],2.279
same,Gene expression NM_019738 average,[3],−2.772
same,Gene expression NM_030697 average,[3],3.958
same,Gene expression NM_053122 average,[3],−4.049
same,Gene expression NM_134147 average,[3],−2.8471
same,Gene expression NM_134188 average,[3],0.4786
same,Gene expression X62701 average,[3],−1.3159
same,Gene expression data AF000969 (Cadps2),[3],−2.406
same,Gene expression data AF022072 (Grb10),[3],−3.6802
same,Gene expression data AF065917 (Lif),[3],1.033
same,Gene expression data AF297615 (Ggta1),[3],2.358
same,Gene expression data AI594683 (Dmn),[3],3.671
same,Gene expression data AI596632 (Ptprg /// LOC632664),[3],−4.795
same,Gene expression data AI987929 (Ndrg1),[3],−3.324
same,Gene expression data AK004419 (Fbxl17),[3],−4.0931
same,Gene expression data AK005731 (1700007K13Rik),[3],5.7645
same,Gene expression data AK007766 (1810044A24Rik),[3],−2.227
same,Gene expression data AK007854 (1810053B23Rik),[3],2.898
same,Gene expression data AK009736 (Gpr137b /// LOC664862 /// LOC673335),[3],−1.056
same,Gene expression data AK010447 (Smyd3),[3],−1.439
same,Gene expression data AK014608 (4632434l11Rik),[3],2.3711
same,Gene expression data AK019979 (2610528E23Rik),[3],−3.317
same,Gene expression data AV095209 (Mthfd1l),[3],−2.454
same,Gene expression data AV141095 (1110033M05Rik),[3],−2.287
same,Gene expression data AV173571 (1700106N22Rik),[3],−2.287
same,Gene expression data AV219418 (Ldhb),[3],2.873
same,Gene expression data AV223474 (Zdhhc14),[3],−2.283
same,Gene expression data AV298304 (Homez),[3],1.9706
same,Gene expression data AV327248 (Zfp365 /// LOC674611),[3],4.258
same,Gene expression data AV377066 (9130221J18Rik),[3],2.462
same,Gene expression data AW240761 (Tbc1d5),[3],−2.643
same,Gene expression data AW543460 (Pard3),[3],−3.164
same,Gene expression data AW543723,[3],2.3145
same,Gene expression data AW986246 (Maoa),[3],−0.2119
same,Gene expression data BB027848 (4732466D17Rik),[3],2.18
same,Gene expression data BB043558 (9230114K14Rik),[3],2.308
same,Gene expression data BB275142 (AW456874),[3],1.944
same,Gene expression data BB308836 (Ppm1l),[3],−1.64
same,Gene expression data BB318221 (Zdhhc14),[3],−2.706
same,Gene expression data BB463610 (4632434l11Rik),[3],2.535
same,Gene expression data BB526605 (Mipol1),[3],−2.035
same,Gene expression data BB770528 (Rai2),[3],2.603
same,Gene expression data BB821363 (Scfd2),[3],−2.485
same,Gene expression data BC004827 (Psat1),[3],−2.4733
same,Gene expression data BC008626 (Icam1),[3],2.3005
same,Gene expression data BC010462 (BC010462),[3],1.163
same,Gene expression data BC012247 (Dcxr),[3],2.094
same,Gene expression data BC012260 (Psmf1),[3],2.237
same,Gene expression data BC015270 (Hist2h3c2),[3],0.6339
same,Gene expression data BC016073 (Cdkal1),[3],−1.963
same,Gene expression data BC016265 (Ube2e2),[3],−2.202
same,Gene expression data BC019882 (Acaa1b),[3],3.446
same,Gene expression data BC025501 (Aaas),[3],2.023
same,Gene expression data BC025837 (Sbk1),[3],1.652
same,Gene expression data BC025915 (Cova1),[3],−1.619
same,Gene expression data BC026422 (Tgm1),[3],2.651
same,Gene expression data BF719766 (Thyn1),[3],2.045
same,Gene expression data BG065754 (Ccng1),[3],1.179
same,Gene expression data BG066903 (Kif16b),[3],−1.047
same,Gene expression data BG069873 (Gnb1l),[3],2.175
same,Gene expression data BG070887 (Gtdc1),[3],−2.356
same,Gene expression data BG076151 (Ppm1d),[3],2.238
same,Gene expression data BG261907 (Large),[3],−3.876
same,Gene expression data BI651416 (Cdc42bpg),[3],2.482
same,Gene expression data BI660702 (Ell3),[3],3.742
same,Gene expression data BM198879 (Ercc5),[3],2.012
same,Gene expression data BM230508 (A030007D23Rik),[3],2.556
same,Gene expression data NM_007987 (Fas),[3],2.6645
same,Gene expression data NM_008522 (Ltf),[3],3.9908
same,Gene expression data NM_008576 (Abcc1),[3],−1.312
same,Gene expression data NM_011176 (St14),[3],2.078
same,Gene expression data NM_011316 (Saa4),[3],2.611
same,Gene expression data NM_012006 (Acot1),[3],3.959
same,Gene expression data NM_013866 (Zfp385),[3],2.3
same,Gene expression data NM_018770 (Igsf4a),[3],−2.054
same,Gene expression data NM_021451 (Pmaip1),[3],2.681
same,Gene expression data NM_025770 (Atg10),[3],−1.329
same,Gene expression data NM_028803 (Gbe1),[3],−1.8898
same,Gene expression data NM_030697 (Ankrd47),[3],3.874
same,Gene expression data NM_053168 (Trim11),[3],1.4821
same,Gene expression data NM_134188 (Acot2),[3],−0.06593
same,Gene expression data Y15910 (Diap2),[3],−2.813

# Source: patent US20120122727A1, “IN VITRO METHOD FOR PREDICTING WHETHER A COMPOUND IS GENOTOXIC IN VIVO” (priority 2009, published 2012)
